# From publication PMC7915026, “Sulfaguanidine Hybrid with Some New Pyridine-2-One Derivatives: Design, Synthesis, and Antimicrobial Activity against Multidrug-Resistant Bacteria as Dual DNA Gyrase and DHFR Inhibitors” (Antibiotics, 2021)
# Where two headings read alike, the source gives them in different places.
# Assays:
# Assay type in all cases: cell-based
# B. subtilis ATCC 6633 [1] = assay: Inhibition zone, paper disk/agar diffusion; further: test concentration or dose not given here
# Method in brief: (§1)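 Agar diffusion; IZ diameter in mm. Positive control: norfloxacin.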
# E. coli ATCC 25922 [2] = assay: Inhibition zone, paper disk/agar diffusion
# Method in brief: as §1
# E. faecalis ATCC 29212 [3] = assay: Inhibition zone, paper disk/agar diffusion; further: test concentration or dose not given here
# Method in brief: as §1
# P. aeruginosa ATCC 27853 [4] = assay: Inhibition zone, paper disk/agar diffusion
# Method in brief: as §1
# S. aureus ATCC 29213 [5] = assay: Inhibition zone, paper disk/agar diffusion; further: test concentration or dose not given here
# Method in brief: as §1
# S. typhi ATCC 6539 = assay: Inhibition zone, paper disk/agar diffusion
# Method in brief: as §1
# B. subtilis ATCC 6633 [6] = assay: MIC and MBC determination
# S. aureus ATCC 29213 [7] = assay: MIC and MBC determination; conditions: Staphylococcus aureus, ATCC29213
# E. faecalis ATCC 29212 [8] = assay: MIC and MBC determination
# E. coli ATCC 25922 [9] = assay: MIC and MBC determination
# P. aeruginosa ATCC 27853 [10] = assay: MIC and MBC determination; conditions: Pseudomonas aeruginosa, ATCC27853
# [11] = test system: Salmonella typhi (S. typhi ATCC 6539); assay: microbe, parasite or virus in culture; conditions: Salmonella enterica
# [12] = test system: Gram-positive and Gram-negative bacteria
# [13] = Enterococcus faecalis, ATCC29212
# [14] = Gram-negative: E. coli, P. aeruginosa, S. typhi
smiles,measurement,setting,value
"CN(C)[C@@H]1C(O)=C(C(N)=O)C(=O)[C@@]2(O)C(O)=C3C(=O)c4c(O)cccc4[C@@](C)(O)[C@H]3C[C@@H]12 [Tetracycline, tetracycline, reference compound]",Mean Diameter of the Inhibition Zone,B. subtilis ATCC 6633 [1],25 ± 0.22 mm
same,Mean Diameter of the Inhibition Zone,E. coli ATCC 25922 [2],23 ± 0.20 mm
same,Mean Diameter of the Inhibition Zone,E. faecalis ATCC 29212 [3],22 ± 0.25 mm
same,Mean Diameter of the Inhibition Zone,P. aeruginosa ATCC 27853 [4],20 ± 0.5 mm
same,Mean Diameter of the Inhibition Zone,S. aureus ATCC 29213 [5],25 ± 0.11 mm
same,Mean Diameter of the Inhibition Zone,S. typhi ATCC 6539,21 ± 0.55 mm
same,MBC,B. subtilis ATCC 6633 [6],91.40 ± 2.89 µM
same,MIC,B. subtilis ATCC 6633 [6],70.31 ± 2.65 µM
same,MBC,"B. subtilis ATCC 6633 [6]; Bacillus subtilis, ATCC6633",91.4 µM
same,MIC,"B. subtilis ATCC 6633 [6]; Bacillus subtilis, ATCC6633",70.3 µM
same,MBC,S. aureus ATCC 29213 [7],197 ± 3.54 µM
same,MIC,S. aureus ATCC 29213 [7],141 ± 3.21 µM
same,MBC,E. faecalis ATCC 29212 [8],210.9 ± 1.78 µM
same,MIC,E. faecalis ATCC 29212 [8],140.6 ± 1.98 µM
same,MBC,E. faecalis ATCC 29212 [8]; [13],211 µM
same,MIC,E. faecalis ATCC 29212 [8]; [13],141 µM
same,MBC,E. coli ATCC 25922 [9],42.16 ± 0.92 µM
same,MIC,E. coli ATCC 25922 [9],35.14 ± 0.87 µM
same,MBC,"E. coli ATCC 25922 [9]; Escherichia coli, ATCC25922",42.2 µM
same,MIC,"E. coli ATCC 25922 [9]; Escherichia coli, ATCC25922",35.1 µM
same,MBC,P. aeruginosa ATCC 27853 [10],197 ± 2.36 µM
same,MIC,P. aeruginosa ATCC 27853 [10],141 ± 2.85 µM
same,MBC,[11],98.44 ± 0.87 µM
same,MIC,[11],70.3 ± 1.06 µM
same,MBC range,[12]; [14],42.16 to 196.89 µM
same,MIC range,[12]; [14],35.14 to 140.6 µM
same,MBC range,[12]; Gram-positive bacteria,91.40 to 210.9 µM
same,MIC range,[12]; Gram-positive bacteria,70.31 to 140.63 µM
